Test results published in US10100006B2, “Compound having immune disease treatment effect and use thereof” (THE CATHOLIC UNIVERSITY OF KOREA INDUSTRY—ACADEMIC …, priority 2014, dated 2018).

Legend:
[1] = tested on: IL-17; test: Production of inflammatory cytokines, ELISA: IL-17, mouse spleen cells; type: cell-based
[2] = tested on: IFN-r; test: Production of inflammatory cytokines, ELISA: IFN-r, mouse spleen cells; type: cell-based
[3] = tested on: TNF-a; test: Production of inflammatory cytokines, ELISA: TNF-a, mouse spleen cells; type: cell-based
[4] = tested on: cells in each test group disclosed in Table 3; test: Cytotoxicity analysis (MTT assay); type: cell-based, mouse; human; details: treatment for each concentration, 72 hrs; normal cells and disease-group cells; compared with control or metformin-treated group
Protocol: In order to verify whether the compounds synthesized in the present invention causes the cytotoxicity in the cells, an MTT assay was performed, target cells were divided to be the number of 2×10^5 cells per well on a 96 well plate, treated with the compounds of the present invention for each concentration, incubated for 72 hrs, added with an MTT solution (0.5% 3-4,5-dimethyl thiazol-2-yl)-2,5-diphenyl-2H-tetrazolium bromide), and incubated for 4 hrs again. Thereafter, absorbance at 540 nm was measured by an enzymelinked immunospecific assay (ELISA) meter to observe the cytotoxicity.
In order to verify whether the novel compounds synthesized in Example 1 have the cytotoxicity, a cell survival rate was verified through the MTT assay by targeting cells in each test group disclosed in Table 3 above. That is, the cells of each test group were divided according to the number of 2×10^5 cells per well and treated with the novel synthesized compounds of the present invention for each concentration, and the cell survival rate was analyzed.

[5] = tested on: MMP-9; test: Inflammatory gene expression, RT-PCR: MMP-9; type: cell-based, mouse; details: control = 1
[6] = tested on: IL-17; test: Production of inflammatory cytokines, ELISA: IL-17, lymphocytes of human peripheral blood; type: cell-based; details: D: Lymphocytes of human peripheral blood
Protocol: (§1) Further, in a lupus-developed mouse model, a sanroque mouse used in a lupus model in the art was used and the human P.B group was used by obtaining lymphocytes from the human peripheral blood. The isolation of spleen cells and the isolation of lymphocytes from each mouse and the human peripheral blood were performed by a general method which was widely known in the art and the obtained cells were incubated for 72 h under the anti-CD3 0.5 μg/ml stimulation condition, activated, and then used.
(§2) In order to verify whether the novel compounds of the present invention have an effect on inflammation and the production of inflammatory cytokines as cause substances of the immune diseases, the inventors analyzed the production degree of IL-17, IL-6, TNF-α, IFN-γ, MMP-9, and STAT-3 and the expression degree of mRNA of these cytokines by targeting each test group. The production degree of the inflammatory cytokines was analyzed through an ELISA after obtaining a supernatant by targeting cells which were treated with the compound of the present invention and incubated, and particularly, the cells reacted with cytokine-specific antibodies anti-IL-17, anti-IL-6, anti-TNF-α, anti-IFN-γ, anti-MMP-9, and anti-STAT-3 all night at […] and then non-specific binding was blocked with a blocking solution (1% BSA/PBST). Thereafter, each biotinylated antibody was reacted at room temperature for 2 hrs, washed four times, and then reacted at room temperature for 2 hrs after diluting and adding an extravidin-alkaline phosphatase conjugate. Thereafter, a PNPP/DEA solution was added and colored, and then the absorbance was measured at a wavelength of 405 nm.

[7] = tested on: IgG2; test: Autoantibody production, sandwich ELISA: IgG2; type: cell-based, mouse
[8] = tested on: TNF-a; test: Inflammatory gene expression, RT-PCR: TNF-a; type: cell-based, mouse; details: control = 1
[9] = tested on: osteoclasts; test: Inhibition of differentiation of osteoclasts, TRAP staining; type: cell-based, mouse; details: M-CSF and RANKL
[10] = tested on: Th17 cells; test: Inhibition of Th17 cells, flow cytometry; type: cell-based, mouse
[11] = tested on: IgG1; test: Autoantibody production, sandwich ELISA: IgG1; type: cell-based, mouse
[12] = tested on: Treg cells; test: Treg cell-induced activity, flow cytometry; type: cell-based, mouse; details: TCR condition
[13] = tested on: Total IgG; test: Autoantibody production, sandwich ELISA: Total IgG; type: cell-based, mouse
[14] = tested on: STAT3; test: Inflammatory gene expression, RT-PCR: STAT3; type: cell-based; details: A: Normal mouse cells; control = 1
[15] = tested on: IFN-r; test: Production of inflammatory cytokines, ELISA: IFN-r, lymphocytes of human peripheral blood; type: cell-based; details: D: Lymphocytes of human peripheral blood
Protocol: as §1, §2

[16] = tested on: IL-6; test: Production of inflammatory cytokines, ELISA: IL-6, mouse spleen cells; type: cell-based
[17] = TCR condition, A: Normal mouse cells
[18] = TCR condition, B: Rheumatoid arthritis cells
[19] = Th17 condition (Th17 differentiation condition), A: Normal mouse cells

Structure (SMILES)	IL-17 production ([1]; A: Normal mouse cells)	IL-17 production ([1]; B: Rheumatoid arthritis cells)	IL-17 production ([1]; C: Lupus cells)	IFN-r production ([2]; A: Normal mouse cells)	IFN-r production ([2]; B: Rheumatoid arthritis cells)	IFN-r production ([2]; C: Lupus cells)	TNF-a production ([3]; A: Normal mouse cells)	TNF-a production ([3]; B: Rheumatoid arthritis cells)	TNF-a production ([3]; C: Lupus cells)	cytotoxicity (cell survival rate, MTT) [4]	MMP-9 gene expression ([5]; A: Normal mouse cells)	MMP-9 gene expression ([5]; B: Rheumatoid arthritis cells)	MMP-9 gene expression ([5]; C: Lupus cells)	IL-17 production [6]	IgG2 ([7]; A: Normal mouse cells)	IgG2 ([7]; B: Rheumatoid arthritis cells)	IgG2 ([7]; C: Lupus cells)	TNF-a gene expression ([8]; A: Normal mouse cells)	Th17 [10, 19]	IFN-r production [15]	also measured
CCN(C(=N)NC(=N)N)c1ccc(F)cc1 [SD-282, N-Ethyl-N-(4-fluorophenyl) biguanide]	1.7 ng/mL	2.1 ng/mL	0.6 ng/mL	3.3 ng/mL	2.9 ng/mL	7.6 ng/mL	0.4 ng/mL	0.4 ng/mL	0.7 ng/mL	cytotoxicity was not observed	0.1 gene expression	0.08 gene expression	1.3 gene expression	0.1 ng/mL	37.1 ng/mL	38.3 ng/mL	110.9 ng/mL	0.07 gene expression	0.5	0.1 ng/mL	TNF-a gene expression ([8]; B: Rheumatoid arthritis cells): 0.06 gene expression; TNF-a gene expression ([8]; C: Lupus cells): 0.8 gene expression; TRAP + Cell ([9]; A: Normal mouse cells): 157; TRAP + Cell ([9]; B: Rheumatoid arthritis cells): 89; Th17 [10, 17]: 1.2; Th17 [10, 18]: 1.5; Th17 ([10]; TCR condition, C: Lupus cells): 0.9; IgG1 ([11]; A: Normal mouse cells): 1 ng/mL; IgG1 ([11]; B: Rheumatoid arthritis cells): 218.7 ng/mL; IgG1 ([11]; C: Lupus cells): 425.4 ng/mL; Treg ([12]; A: Normal mouse cells): 2.5; Treg ([12]; B: Rheumatoid arthritis cells): 4.6; Treg ([12]; C: Lupus cells): 2.9; Total IgG ([13]; A: Normal mouse cells): 0.7 ng/mL; Total IgG ([13]; B: Rheumatoid arthritis cells): 60.3 ng/mL; Total IgG ([13]; C: Lupus cells): 127.7 ng/mL; STAT3 gene expression [14]: 0.6 gene expression; IL-6 production ([16]; A: Normal mouse cells): 1.3 ng/mL; IL-6 production ([16]; B: Rheumatoid arthritis cells): 1.3 ng/mL; IL-6 production ([16]; C: Lupus cells): 1 ng/mL
CCN(C(=N)NC(=N)N)c1ccc(F)c(F)c1 [SD-281, N-(3,4-Difluorophenyl)-N-ethylbiguanide]	1.7 ng/mL	2.2 ng/mL	0.6 ng/mL	5.8 ng/mL	5.3 ng/mL	10 ng/mL	0.5 ng/mL	0.4 ng/mL	0.7 ng/mL	cytotoxicity was not observed	0.5 gene expression	0.4 gene expression	0.4 gene expression	0.1 ng/mL	35.6 ng/mL	33.5 ng/mL	84.3 ng/mL	0.2 gene expression	0.4	0.1 ng/mL	TNF-a gene expression ([8]; B: Rheumatoid arthritis cells): 0.6 gene expression; TNF-a gene expression ([8]; C: Lupus cells): 0.1 gene expression; TRAP + Cell ([9]; A: Normal mouse cells): 196; TRAP + Cell ([9]; B: Rheumatoid arthritis cells): 57; Th17 [10, 17]: 1.2; Th17 [10, 18]: 1.5; Th17 ([10]; TCR condition, C: Lupus cells): 0.8; IgG1 ([11]; A: Normal mouse cells): 83.8 ng/mL; IgG1 ([11]; B: Rheumatoid arthritis cells): 135.2 ng/mL; IgG1 ([11]; C: Lupus cells): 258.2 ng/mL; Treg ([12]; A: Normal mouse cells): 2; Treg ([12]; B: Rheumatoid arthritis cells): 4.6; Treg ([12]; C: Lupus cells): 2.8; Total IgG ([13]; A: Normal mouse cells): 2.3 ng/mL; Total IgG ([13]; B: Rheumatoid arthritis cells): 58.1 ng/mL; Total IgG ([13]; C: Lupus cells): 124.5 ng/mL; STAT3 gene expression [14]: 1.2 gene expression; IL-6 production ([16]; A: Normal mouse cells): 1.4 ng/mL; IL-6 production ([16]; B: Rheumatoid arthritis cells): 1.4 ng/mL; IL-6 production ([16]; C: Lupus cells): 1 ng/mL
CCN(C(=N)NC(=N)N)c1ccc(F)cc1F [SD-283, N-(2,4-Difluorophenyl)-N-ethylbiguanide]	1.6 ng/mL	2.2 ng/mL	0.4 ng/mL	7.2 ng/mL	5.4 ng/mL	5.5 ng/mL	0.5 ng/mL	0.3 ng/mL	0.6 ng/mL	cytotoxicity was not observed	0.3 gene expression	1 gene expression	0.04 gene expression	0.1 ng/mL	97.6 ng/mL	99.4 ng/mL	76 ng/mL	0.4 gene expression	0.9	0.1 ng/mL	TNF-a gene expression ([8]; B: Rheumatoid arthritis cells): 0.06 gene expression; TNF-a gene expression ([8]; C: Lupus cells): 0.1 gene expression; TRAP + Cell ([9]; A: Normal mouse cells): 123; TRAP + Cell ([9]; B: Rheumatoid arthritis cells): 85; Th17 [10, 17]: 1.1; Th17 [10, 18]: 2.3; Th17 ([10]; TCR condition, C: Lupus cells): 0.5; IgG1 ([11]; A: Normal mouse cells): 41 ng/mL; IgG1 ([11]; B: Rheumatoid arthritis cells): 135.3 ng/mL; IgG1 ([11]; C: Lupus cells): 296.5 ng/mL; Treg ([12]; A: Normal mouse cells): 3; Treg ([12]; B: Rheumatoid arthritis cells): 5.1; Treg ([12]; C: Lupus cells): 3.3; Total IgG ([13]; A: Normal mouse cells): 2.9 ng/mL; Total IgG ([13]; B: Rheumatoid arthritis cells): 49.6 ng/mL; Total IgG ([13]; C: Lupus cells): 113.5 ng/mL; STAT3 gene expression [14]: 1.3 gene expression; IL-6 production ([16]; A: Normal mouse cells): 1.4 ng/mL; IL-6 production ([16]; B: Rheumatoid arthritis cells): 1.1 ng/mL; IL-6 production ([16]; C: Lupus cells): 0.9 ng/mL
CN(C(=N)NC(=N)N)c1ccc(F)cc1F [SD-284, N-(2,4-Difluorophenyl)-N-methylbiguanide]										cytotoxicity was not observed				0.1 ng/mL					2	0.08 ng/mL	IL-17 production ([1]; Table 6, normal mouse cells): 6.5 ng/mL; IFN-r production ([2]; Table 6, normal mouse cells): 4.9 ng/mL; TNF-a production ([3]; Table 6, normal mouse cells): 0.5 ng/mL; IL-6 production ([16]; Table 6, normal mouse cells): 0.7 ng/mL
